Tests used:
[1] = target: memapsin 2 (Homo sapiens, UniProt P56817); assay: Inhibition of memapsin 2 beta-secretase activity toward fluorogenic substrate FS-2; format: biochemical; details: pH 4, 37° C., 20 minutes pre-incubation, substrate FS-2, tight-binding model; read-out: M2 Ki
Description: Potency of compounds were determined by measurement of their inhibition of memapsin 2 activity toward a fluorescent substrate. […] Briefly, assays were performed at pH 4, 37° C., by pre-incubation of memapsin 2 enzyme with compound for 20 minutes. Activity measure was initiated by addition of a fluorogenic substrate FS-2 (Bachem Americas, Torrance, Calif.). Fluorescent signal increase over time was measured as a rate of hydrolysis of the peptide substrate.

[2] = target: Cathepsin D (Homo sapiens, UniProt P07339); assay: Inhibition of cathepsin D activity (substrate peptide […], MALDI-TOF); format: biochemical; details: pH 4.1, 37 degrees C., substrate NH3-[…]-CO2, MALDI-TOF; read-out: Cath D Ki
Chain of Cathepsin D (P07339 65-412, species assumed): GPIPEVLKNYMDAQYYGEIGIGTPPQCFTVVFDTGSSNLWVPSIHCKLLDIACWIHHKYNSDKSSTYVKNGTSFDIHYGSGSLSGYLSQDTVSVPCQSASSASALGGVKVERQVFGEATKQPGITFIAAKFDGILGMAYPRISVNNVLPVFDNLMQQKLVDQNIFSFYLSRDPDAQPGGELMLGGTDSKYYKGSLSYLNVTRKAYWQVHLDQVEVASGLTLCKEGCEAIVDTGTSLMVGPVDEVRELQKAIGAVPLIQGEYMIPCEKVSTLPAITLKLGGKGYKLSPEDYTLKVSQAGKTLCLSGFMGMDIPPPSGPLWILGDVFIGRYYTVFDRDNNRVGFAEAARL

[3] = target: T1, memapsin 1 (Homo sapiens, UniProt Q9Y5Z0); assay: Inhibition of memapsin 1 beta-secretase activity (substrate peptide […], MALDI-TOF); format: biochemical; details: pH 4.1, 37 degrees C., substrate NH3-ELDLAVEFWHDR-CO2, MALDI-TOF; read-out: M1 Ki
T1 sequence (Q9Y5Z0 63-518): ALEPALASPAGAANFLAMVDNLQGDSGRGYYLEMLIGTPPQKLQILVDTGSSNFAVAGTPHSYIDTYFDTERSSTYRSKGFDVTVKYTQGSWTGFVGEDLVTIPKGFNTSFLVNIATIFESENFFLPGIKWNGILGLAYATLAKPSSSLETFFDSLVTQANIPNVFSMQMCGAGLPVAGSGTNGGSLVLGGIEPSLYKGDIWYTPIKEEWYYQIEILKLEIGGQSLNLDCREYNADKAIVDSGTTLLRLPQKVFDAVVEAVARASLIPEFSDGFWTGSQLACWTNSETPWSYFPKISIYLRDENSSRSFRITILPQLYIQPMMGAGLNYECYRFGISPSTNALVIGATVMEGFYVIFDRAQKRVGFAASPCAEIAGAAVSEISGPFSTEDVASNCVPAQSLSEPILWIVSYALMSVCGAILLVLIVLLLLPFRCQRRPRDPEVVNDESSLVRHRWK

[4] = test system: Aβ production; assay: Cellular Aβ IC50 determination (Aβ40 sandwich ELISA); format: cell-based; details: Cricetulus griseus, Chinese hamster ovary cells over-expressing human APP695 with London and Swedish mutations, 24 h
Description: The potency of compounds against memapsin 2 activity was determined in a cellular assay of Aβ production. […] Chinese hamster ovary cells that over-express human APP695 with the London and Swedish mutations were seeded in multi-well plates at 10% confluency. Compounds were dissolved in DMSO to concentrations near 1 mM, and diluted into culture media to a final concentration near 4 μM (final 0.4% DMSO). Compounds were diluted serially and applied to cells in multi-well plates 48 h after seeding. Incubation was continued in 5% CO2 at 37 degrees C. for 24 h. Aliquots were removed and assayed for Aβ40 content using a sandwich ELISA (BioSource International). Amount of Aβ40 over the range of concentration of compounds, relative to control incubations, were fit to a 4-parameter IC50 model.

Chain of memapsin 2 (P56817 46-501): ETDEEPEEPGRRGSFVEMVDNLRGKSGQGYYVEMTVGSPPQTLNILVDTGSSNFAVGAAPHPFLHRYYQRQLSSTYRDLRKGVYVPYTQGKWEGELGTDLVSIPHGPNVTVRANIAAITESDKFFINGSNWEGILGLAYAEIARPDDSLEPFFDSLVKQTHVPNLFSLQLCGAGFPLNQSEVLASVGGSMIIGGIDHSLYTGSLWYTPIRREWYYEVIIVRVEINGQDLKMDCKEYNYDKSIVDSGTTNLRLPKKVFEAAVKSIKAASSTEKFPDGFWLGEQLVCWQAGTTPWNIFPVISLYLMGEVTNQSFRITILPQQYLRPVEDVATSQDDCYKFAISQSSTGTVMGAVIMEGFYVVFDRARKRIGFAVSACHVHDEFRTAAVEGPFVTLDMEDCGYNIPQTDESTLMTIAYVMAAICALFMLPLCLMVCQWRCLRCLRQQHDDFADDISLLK

SMILES	Ki [1] [nM]	Ki [2] [nM]	Ki [3] [nM]	IC50 [4] [nM]
CSC[C@H](NC(=O)OCc1nc(C)oc1C)C(=O)N[C@H](Cc1ccccc1)[C@@H](O)C[C@@H](C)C(=O)N[C@@H](C(=O)NCC(C)C)C(C)C [Structure 50]	100 to 1000	< 100	< 100	6000 to 100000
CSC[C@H](NC(=O)[C@@H](C)Cc1nc(C)cs1)C(=O)N[C@H](CC(C)C)[C@@H](O)C[C@@H](C)C(=O)N[C@@H](C(=O)NCC(C)C)C(C)C [Structure 64]	100 to 1000	< 100	100 to 1000	< 6000
CCC(CC)SC[C@H](NC(=O)OCc1nc(C)cs1)C(=O)N[C@H](CC(C)C)[C@@H](O)C[C@@H](C)C(=O)N[C@@H](C(=O)NCC(C)C)C(C)C [Structure 72]	< 100	< 100	100 to 1000	< 6000
CCC(CC)S(=O)(=O)C[C@H](NC(=O)OCc1nc(C)cs1)C(=O)N[C@H](CC(C)C)[C@@H](O)C[C@@H](C)C(=O)N[C@@H](C(=O)NCC(C)C)C(C)C [Structure 73]	< 100	100 to 1000	100 to 1000	6000 to 100000
CCc1nc(COC(=O)N[C@@H](CS(C)(=O)=O)C(=O)N[C@H](CC(C)C)[C@@H](O)C[C@@H](C)C(=O)N[C@@H](C(=O)NCC(C)C)C(C)C)c(C)o1 [Structure 74]	< 100	100 to 1000	100 to 1000	< 6000
CC[C@@H](Cc1nc(C)cs1)C(=O)N[C@@H](CSC)C(=O)N[C@H](CC(C)C)[C@@H](O)C[C@@H](C)C(=O)N[C@@H](C(=O)NCC(C)C)C(C)C [Structure 75]	< 100	< 100	100 to 1000	< 6000
CC[C@@H](Cc1nc(C)cs1)C(=O)N[C@@H](CS(C)(=O)=O)C(=O)N[C@H](CC(C)C)[C@@H](O)C[C@@H](C)C(=O)N[C@@H](C(=O)NCC(C)C)C(C)C [Structure 77]	< 100	< 100	100 to 1000	< 6000
Cc1nc(COC(=O)N[C@@H](CS(C)(=O)=O)C(=O)N[C@H](Cc2cc(F)cc(F)c2)[C@@H](O)C[C@@H](C)C(=O)N[C@@H](C(=O)NCC(C)C)C(C)C)c(C)o1 [Structure 78]	100 to 1000	< 100	< 100	6000 to 100000
Cc1csc(COC(=O)N[C@@H](CS(C)(=O)=O)C(=O)N[C@H](Cc2cc(F)cc(F)c2)[C@@H](O)C[C@@H](C)C(=O)N[C@@H](C(=O)NCC(C)C)C(C)C)n1 [Structure 79]	< 100	< 100	< 100	< 6000
Cc1nc(COC(=O)N[C@@H](CS(C)(=O)=O)C(=O)N[C@H](CC(C)C)[C@@H](O)C[C@@H](C)C(=O)N[C@@H](C(=O)O)C(C)C)c(C)o1 [Structure 86]	100 to 1000	> 1000	100 to 1000	> 100000
COC(=O)[C@H](NC(=O)[C@H](C)C[C@H](O)[C@@H](CC(C)C)NC(=O)[C@H](CSC)NC(=O)OCc1nc(C)cs1)C(C)C [Structure 88]	> 1000	100 to 1000	> 1000	< 6000
CSC[C@H](NC(=O)OCc1ccn(C)n1)C(=O)N[C@H](CC(C)C)[C@@H](O)C[C@@H](C)C(=O)N[C@@H](C(=O)NCC(C)C)C(C)C [Structure 93]	100 to 1000	< 100	100 to 1000	6000 to 100000
Cc1nc(COC(=O)N[C@@H](CS(C)(=O)=O)C(=O)N[C@H](CC(C)C)[C@@H](O)C[C@@H](C)C(=O)N[C@@H](C(=O)NCC(C)C)C(C)C)c(C)o1 [Structure 94]	< 100	100 to 1000	100 to 1000	< 6000
Cc1coc(COC(=O)N[C@@H](CS(C)(=O)=O)C(=O)N[C@@H](CC(C)C)[C@@H](O)C[C@@H](C)C(=O)N[C@H](C(=O)NCC(C)C)C(C)C)n1 [Structure 95]	< 100	100 to 1000	> 1000	< 6000

Now from value to molecule:

Ki [1] [nM]	Ki [2] [nM]	Ki [3] [nM]	IC50 [4] [nM]	SMILES
< 100	100 to 1000	100 to 1000	< 6000	Cc1nc(COC(=O)N[C@@H](CS(C)(=O)=O)C(=O)N[C@H](CC(C)C)[C@@H](O)C[C@@H](C)C(=O)N[C@@H](C(=O)NCc2ccncc2)C(C)C)c(C)o1 [Structure 48]
< 100	100 to 1000	< 100	> 100000	Cc1csc(COC(=O)N[C@@H](CS(=O)(=O)CC(C)C)C(=O)N[C@H](CC(C)C)[C@@H](O)C[C@@H](C)C(=O)N[C@@H](C(=O)NCC(C)C)C(C)C)n1 [Structure 49]
< 100	< 100	< 100	< 6000	CSC[C@H](NC(=O)OCc1nc(C)sc1C)C(=O)N[C@H](CC(C)C)[C@@H](O)C[C@@H](C)C(=O)N[C@@H](C(=O)NCC(C)C)C(C)C [Structure 53]
< 100	100 to 1000	< 100	< 6000	Cc1nc(COC(=O)N[C@@H](CS(C)(=O)=O)C(=O)N[C@H](CC(C)C)[C@@H](O)C[C@@H](C)C(=O)N[C@@H](C(=O)NCC(C)C)C(C)C)c(C)s1 [Structure 54]
< 100	< 100	< 100	6000 to 100000	Cc1csc(COC(=O)N[C@@H](CS(C)(=O)=O)C(=O)N[C@H](Cc2ccccc2)[C@@H](O)C[C@@H](C)C(=O)N[C@@H](C(=O)NCC(C)C)C(C)C)n1 [Structure 55]
< 100	< 100	100 to 1000	> 100000	Cc1csc(COC(=O)N[C@@H](CSC2CCCC2)C(=O)N[C@H](CC(C)C)[C@@H](O)C[C@@H](C)C(=O)N[C@@H](C(=O)NCC(C)C)C(C)C)n1 [Structure 56]
< 100	100 to 1000	100 to 1000	< 6000	Cc1nc(COC(=O)N[C@@H](CS(C)(=O)=O)C(=O)N[C@H](CC(C)C)[C@@H](O)C[C@@H](C)C(=O)N[C@@H](C(=O)NN(C)C)C(C)C)c(C)o1 [Structure 57]
< 100	100 to 1000	100 to 1000	< 6000	Cc1csc(COC(=O)N[C@@H](CS(=O)(=O)C2CCCC2)C(=O)N[C@H](CC(C)C)[C@@H](O)C[C@@H](C)C(=O)N[C@@H](C(=O)NCC(C)C)C(C)C)n1 [Structure 58]
< 100	100 to 1000	100 to 1000	6000 to 100000	Cc1nc(COC(=O)N[C@@H](CS(=O)(=O)C(C)C)C(=O)N[C@H](CC(C)C)[C@@H](O)C[C@@H](C)C(=O)N[C@@H](C(=O)NCC(C)C)C(C)C)c(C)o1 [Structure 59]
< 100	< 100	100 to 1000	< 6000	Cc1nc(COC(=O)N[C@@H](CSC(C)C)C(=O)N[C@H](CC(C)C)[C@@H](O)C[C@@H](C)C(=O)N[C@@H](C(=O)NCC(C)C)C(C)C)c(C)o1 [Structure 60]
< 100	< 100	100 to 1000	< 6000	CCC(C)SC[C@H](NC(=O)OCc1nc(C)cs1)C(=O)N[C@H](CC(C)C)[C@@H](O)C[C@@H](C)C(=O)N[C@@H](C(=O)NCC(C)C)C(C)C (stereo partly shown) [Structure 66]
< 100	100 to 1000	100 to 1000	> 100000	CCC(C)S(=O)(=O)C[C@H](NC(=O)OCc1nc(C)cs1)C(=O)N[C@H](CC(C)C)[C@@H](O)C[C@@H](C)C(=O)N[C@@H](C(=O)NCC(C)C)C(C)C (stereo partly shown) [Structure 67]
< 100	100 to 1000	100 to 1000	6000 to 100000	Cc1csc(COC(=O)N[C@@H](CS(C)(=O)=O)C(=O)N[C@H](CC(C)C)[C@@H](O)C[C@@H](C)C(=O)N[C@@H](C(=O)NCC(C)C)c2ccccc2)n1 [Structure 68]
< 100	100 to 1000	100 to 1000	> 100000	CCc1nc(COC(=O)N[C@@H](CS(C)(=O)=O)C(=O)N[C@H](CC(C)C)[C@@H](O)C[C@@H](C)C(=O)N[C@@H](C(=O)NCC(C)C)C(C)C)c(C)s1 [Structure 71]
